Source: US7241731B2, “Oligopeptides for promoting hair growth” (Sumitomo Electric Industries, Ltd., priority 2000, dated 2007)
Bridge positions count the residues as written; N and C are the ends. Primed or numbered codes have the meaning given here. Ends that are not written are not given here. I, II: the chains in the order shown. * marks the point of attachment. Biotin = O=C1N[C@H]2[C@H](CS[C@H]2CCCCC(=O)*)N1; BMH′ = not defined here

Columns and labels:
[1] = test system: Human keratinocytes (NHEK cell), IL-8 secretion; test: IL-8 secretion by NHEK cells (ELISA); type: cell-based; conditions: for secretion amount of IL-8: FIG. 8, 50 μg/ml, deletion variants of b7; for secretion amount of IL-8 / IL-8 inducing activity: 16–20 hours; for IL-8 inducing activity: Table IV, 50 μg/ml, symbols not defined
Experimental: Human keratinocytes (NHEK cell, Clonetics, available from Sanko Jyun-yaku, Ltd.) were cultivated in a medium for proliferation (Clontics) comprising 30 μg/ml BPE, 0.1 ng/ml human EGF, 5 μg/ml insulin, 0.5 μg/ml hydrocortisone, 50 μg/ml gentamycin, and 50 ng/ml amphoterin. These cells were re-suspended at the concentration of 1×10^4 cells/ml in a medium wherein EGF, insulin, and hydrocortisone were removed from the above medium for proliferation, and then 100 μl of the suspension was placed on each well of a 96-well plate. At the same time of the plating of the cells, 5 μl of 1 mg/ml oligopeptide was added to the suspension so as to be final concentration of 50 μg/ml. After cultivation for 16–20 hours, the amount of IL-8 in the culture supernatants was measured by ELISA kit (ENDOGEN).

[2] = test system: antigen of about 220 kDa present in new follicle (antigen of mAb27); test: Skin tissues of maxilla of ICR mice incubated with test oligopeptide, Western blot with mAb 27; type: cell-based; conditions: for hair growth promoting activity (mAb 27 band stronger than control): Example 10, FIG. 4 and 5, BMH-treated oligopeptides of Example 9, 20 μCM
Experimental: The skin tissues of maxilla of ICR mice (pregnancy 12 days) were collected by stereoscopic microscope, and left and right sides were respectively recovered from 5 mice. 5 pieces of each of the thus collected left (for control) and right (for test oligopeptides) skins from 5 mice were respectively placed on 1 nuclepore membrane (pore diameter 8 μm; diameter 13 mm), and were set in such a way that the outside upturns by observing the samples with stereoscopic microscope. 500 μl of Dulbecco's MEM/Ham F12 medium containing 1% BSA was added to 2 wells of 24 well dish. The test oligopeptide in a solvent (PBS) was added in a final concentration of 20 μCM to one well, and solvent (PBS) was added in the same amount to the other well as a control. The oligopeptides synthesized in Example 9 were used as the test oligopeptides.
(§1) Each membrane having skin tissues thereon was launched on the solution in the above wells, and was incubated at 37° C. for 6 days. 5 pieces of tissue were recovered from the membrane into 100 μl of SDS sample buffer (SDS 0.02 g/ml, glycerol 0.2 g/ml, pH6.8), and dissolved by ultrasonic treatment. The control membrane was also treated similarly. The solution obtained by such a treatment was subjected to electrophoresis (35 mA, 1.5 hour) in SDS-PAGE (acrylamide 4–20%), and transferred to PVDF membrane, and incubated in Tris buffer containing 5% skim milk (TBST) for 1 hour. The membrane was reacted with mAb 27 (10 μg/ml in TBST) obtained in Example 2 for 1 hour, and was washed well with TBS. Then, peroxidase labeled anti-rat IgG (Amersham) (1/1000 diluted in TBST) was reacted as the second antibody, and the membrane was washed well with TBS. The intensity of the reaction of mAb 27 was examined using ECL kit (Amersham).
The skin tissues of maxilla of ICR mice (pregnancy 12 days) were collected by stereoscopic microscope, and left and right sides were respectively recovered from 5 mice. 5 pieces of each of the thus collected left (for control) and right (for test oligopeptides) skins from 5 mice were respectively placed on 1 nuclepore membrane (pore diameter 8 μm; diameter 13 mm), and were set in such a way that the outside upturns by observing the samples with stereoscopic microscope. 500 μl of Dalbecco's MEM/Ham F12 medium containing 1% BSA was added to 2 wells of 24 well dish. The test oligopeptide in a solvent (PBS) was added in a final concentration of 20 μM to one well, and solvent (PBS) was added in the same amount to the other well as a control. The unmodified and modified oligopeptides synthesized in the above (1) were used as the test oligopeptides.
as §1, with “Example 6” for “Example 2”
The skin tissues of maxilla of ICR mice (pregnancy 12 days) were collected by stereoscopic microscope, and left and right sides were respectively recovered from 5 mice. […]

[3] = test system: transition from telogen to anagen (hair cycle); test: Evaluation of hair growth promoting activity by in vivo method (shaved telogen mice, hair growth score); parameters: species or system C57BL/6 mice; conditions: for hair restoration compared with the control group (hair growth score): topical application until 38th day, FIGS. 6 and 7; for Hair growth Activity: Table IV, symbols not defined
Experimental: C3H and C57BL/6 mice are known to have sustained telogen for about 50 days from the 45th day after the birth to around the 95th day. Their hair cycle is easily judged based on the skin color changes, i.e., from pink in telogen to gray or black in anagen. A test for evaluating whether or not the administration the oligopeptides of the present invention promotes the transition from telogen to anagen was carried out using the mice. Seven weeks old (48 to 50-day old, female) C57BL/6 mice were purchased and hair of the back (about 3×2.5 cm^2) was carefully shaved with electric clippers for animals so as not to injure the skin, and the hair cycle was confirmed to be in telogen from the skin color. The oligopeptide solution prepared above was applied to five mice in each group, once a day and 5 days in a week in the amount of 0.2 ml until 38th day from the start of the test. The application was carried out by using a syringe without needle. Dipeptide (Ile-Lys) and tripeptide (Glu-Ile-Lys) of which N-terminal is biotinylated were mixed, and then added with the cross-linking agent to prepare a control solution.
Plural persons (two persons) observed the mice twice a week by naked eye for evaluation, and gave a 6-graded score depending on a ratio of hair restoration area based on the hair shaved area. At the same time, photographs were taken. Hair growth scores were calculated as follows. At first, the following score was given depending on a ratio of areas where the skin color changes to gray or black in the hair shaved area; 0–20%: 1, 20–40%: 2, 40–60%: 3, 60–80%:4, 80–100%: 5. The sum of the above scores in each group was determined as the hair growth score. The maximum value of the hair growth score of each group was 50 for each of the persons for judgment, and the maximum value of hair growth score was 100 because the judgment was made by two persons.

[4] = cited from earlier work
[5] = Example 11, position of Cys altered, synthesized as in Example 9

SIEQSCDQ (Biotin-SIEQSCDQ; also: Cys sulfhydryl blocked (group not given here)) [b7ΔC2]
secretion amount of IL-8 [1]: maintained

SIEQSCDQD (Biotin-SIEQSCDQD; also: sulfhydryl blocked) [b7ΔC1]
secretion amount of IL-8 [1]: maintained

SIECQSD [SEQ ID NO:5]
hair growth promoting activity [2, 5]: showed a hair growth promoting activity

b7: modified oligopeptide having biotin at the N-terminus of Ser-Ile-Glu-Gln-Ser-Cys-Asp-Gln-Asp-Glu (SEQ ID NO:84) (Biotin-SIEQSCDQDE)
hair restoration compared with the control group (hair growth score) ([3]; C57BL/6 mice): hair restoration was promoted until about 30 days from the start of the test
Hair growth Activity [3]: ◯
IL-8 inducing activity [1]: ⊚

heterodimer oligopeptide: heterodimer made with BMH from two different oligopeptides; b464 names SEQ ID NO:87 and SEQ ID NO:4, b490 oligopeptides (A) and (B) (chain 1 SIEQSCD; chain 2 SIEQCSD; linker I:6-II:5 via BMH′ (inferred))
hair growth promoting activity (mAb 27 band stronger than control) ([2]; 6 days): had also a hair growth promoting activity

SICEQSDQDE [oligopeptide (C)]
hair growth promoting activity (mAb 27 band stronger than control) ([2]; 6 days): have a hair growth promoting activity

SICEQSD [SEQ ID NO:6]
hair growth promoting activity [2, 5]: showed a hair growth promoting activity

SIEQSCDQDE [SEQ ID NO:84]
hair growth promoting activity ([3]; conclusion of Example 15): has hair growth promoting activity

SIECQSDQDE [oligopeptide (B)]
hair growth promoting activity (mAb 27 band stronger than control) ([2]; 6 days): have a hair growth promoting activity

QSCDQDE (Biotin-QSCDQDE) [b7ΔN3]
secretion amount of IL-8 [1]: slightly decreased

SIEQCSD [SEQ ID NO:4]
hair growth promoting activity [2, 5]: showed a hair growth promoting activity

SIEQS (Biotin-SIEQS) [b7ΔC5]
secretion amount of IL-8 [1]: significantly decreased

ss7: S-S bridged oligopeptide prepared by reacting the oligopeptide (SEQ ID NO:84 series) with BMH; elsewhere called S-S bridged and biotinylated (SIEQSCDQDE; also: BMH cross-linked dimer, Cys attachment not placed, biotinylated, site not given here)
transition to anagen earlier than the control group ([3]; C57BL/6 mice, 0.2 ml of oligopeptide solution (0.15 mg/ml, 50% ethanol/PBS) once a day, 5 days in a week): ≥ 7 days
hair restoration compared with the control group (hair growth score) ([3]; C57BL/6 mice): hair restoration was promoted at any time until the hair grew and restored almost completely
Hair growth Activity [3]: ⊚
hair growth promoting activity ([2]; Example 16): has hair growth promoting activity
band of mAb27 antigen versus control ([2]; Example 16, FIG. 13, 20 μM, 6 days): a stronger band was detected
IL-8 inducing activity [1]: ⊚

SIEQCSDQDE [oligopeptide (A)]
hair growth promoting activity (mAb 27 band stronger than control) ([2]; 6 days): have a hair growth promoting activity

SIECQSDQ [oligopeptide (D)]
hair growth promoting activity (mAb 27 band stronger than control) ([2]; 6 days): had a hair growth promoting activity

Lys-Ser-Ile-Glu-Gln-Ser-Cys-Asp-Gln-Asp-Glu (Biotin-KSIEQSCDQDE) [bk7]
IL-8 inducing activity compared with oligopeptide b7 ([1]; FIG. 9, Examples 17 and 18): almost the same IL-8 inducing activity as that of oligopeptide b7

SIEQSC (Biotin-SIEQSC; also: Cys sulfhydryl blocked (group not given here)) [b7ΔC4]
secretion amount of IL-8 [1]: maintained

SIEQSCD (Biotin-SIEQSCD; also: Cys sulfhydryl blocked (group not given here)) [b7ΔC3]
secretion amount of IL-8 [1]: maintained

EQSCDQDE (Biotin-EQSCDQDE) [b7ΔN2]
secretion amount of IL-8 [1]: slightly decreased

IEQSCDQDE (Biotin-IEQSCDQDE) [b7ΔN1]
secretion amount of IL-8 [1]: slightly decreased

B1: Native mammalian epimorphin: protein of 277 to 289 amino acids promoting the morphogenesis of epithelial tissue (protein, UniProt P32856 1-288, looked up)
Syntaxin-2: MRDRLPDLTACRKNDDGDTVVVVEKDHFMDDFFHQVEEIRNSIDKITQYVEEVKKNHSIILSAPNPEGKIKEELEDLNKEIKKTANKIRAKLKAIEQSFDQDESGNRTSVDLRIRRTQHSVLSRKFVEAMAEYNEAQTLFRERSKGRIQRQLEITGRTTTDDELEEMLESGKPSIFTSDIISDSQITRQALNEIESRHKDIMKLETSIRELHEMFMDMAMFVETQGEMINNIERNVMNATDYVEHAKEETKKAIKYQSKARRKKWIIIAVSVVLVAIIALIIGLSVGK
solubility in aqueous media such as saline [4]: almost insoluble
